Read-outs that look alike come from different tables or passages of the source.
Legend:
pFGFR4 in Huh7 cells = test: FGFR4 signaling, pFGFR4 (Huh); MSD (Method B); format: cell-based; details: Homo sapiens
[1] = system: pFGFR4 in MDA-MB-453 cells; test: FGFR4 signaling, pFGFR4 (MDA); Western blot (Method A), MSD (Method B), ELISA (Method C); format: cell-based; details: Homo sapiens
Method: The MDA-MB-453 protein concentrations were determined by a BCA Assay (Pierce, Rockford, Ill.). A sample of 50-100 μg of each lysate was separated by a 4-12% gradient (SDS-PAGE (Invitrogen)), transferred to a nitrocellulose membrane (Biorad, Hercules, Calif.), and probed with specific antibodies. Phospho-protein signals were quantitated using Odyssey Infrared Imaging (Li-Cor Biosciences).
To assess phospho-FGFR signaling, the blots were probed with anti-Phospho-FGFR (Y653/Y654) and total anti-FGFR antibodies. The phospho-FGFR signal was normalized to total FGFR expression for each sample.

[2] = Huh-7, Huh7 cells, read-out: Signaling EC50 (nM) pFGFR4 (Huh)
[3] = Huh-7, read-out: Signaling EC50 (nM) pFGFR4 (Huh)
[4] = MDA-MB-453 cells, Method B (MSD) for signaling EC50 determination
[5] = MDA-MB-453, MDA-MB-453 cells, Method B (MSD) for signaling EC50 determination
[6] = MDA-MB-453 cells, Method A (Western blot) for signaling EC50 determination

| SMILES | EC50 (pFGFR4 in Huh7 cells; [2]) [nM] | other results |
| --- | --- | --- |
| C=CC(=O)NC1CCCCC1Nc1ncc2c(n1)N(Cc1cccc(NC(=O)CC)c1)C(=O)N(c1c(Cl)c(OC)cc(OC)c1Cl)C2 (racemic) [Compound I-8] | 101 to 500 |  |
| C=CC(=O)NC1CCCCC1Nc1ncc2c(n1)N(C)C(=O)N(c1c(Cl)c(OC)cc(OC)c1Cl)C2 (racemic) [Compound I-19] |  | EC50 (pFGFR4 in Huh7 cells; [3]): 101 to 500 nM |
| C=CC(=O)NC1CCCCC1Nc1ncc2c(n1)N(CC#N)C(=O)N(c1c(Cl)c(OC)cc(OC)c1Cl)C2 (racemic) [Compound I-47] | 501 to 999 | EC50 [1, 4]: 101 to 500 nM |
| C=CC(=O)NC1CCCCC1Nc1ncc2c(n1)N(CCOC)C(=O)N(c1c(Cl)c(OC)cc(OC)c1Cl)C2 (racemic) [Compound I-61] | 101 to 500 | EC50 [1, 4]: 101 to 500 nM |
| C=CC(=O)NC1CCCCC1Nc1ncc2c(n1)N(Cc1ccccc1)C(=O)N(c1c(Cl)c(OC)cc(OC)c1Cl)C2 (racemic) [Compound I-63] | < 100 | EC50 [1, 4]: 101 to 500 nM |
| C=CC(=O)NC1CCCCC1Nc1ncc2c(n1)N(C1CC1)C(=O)N(c1c(Cl)c(OC)cc(OC)c1Cl)C2 (racemic) [Compound I-68] | 501 to 999 | EC50 [1, 5]: 101 to 500 nM |
| C=CC(=O)Nc1cc(C(F)(F)F)ccc1Nc1ncc2c(n1)N(Cc1ccccc1)C(=O)N(c1c(Cl)c(OC)cc(OC)c1Cl)C2 [Compound I-6] | 101 to 500 |  |
| C=CC(=O)Nc1ccccc1Nc1ncc2c(n1)N(C1CCN(CC)CC1)C(=O)N(c1cc(OC)cc(OC)c1)C2 [Compound I-80] |  | EC50 (pFGFR4 in Huh7 cells; [3]): > 1000 nM |
| C=CC(=O)Nc1ccccc1Nc1ncc2c(n1)N(C1CCNCC1)C(=O)N(c1cc(OC)cc(OC)c1)C2 [Compound I-81] |  | EC50 (pFGFR4 in Huh7 cells; [3]): > 1000 nM |
| C=CC(=O)N[C@H]1CCCC[C@H]1Nc1ncc2c(n1)N(C)C(=O)N(c1c(Cl)c(OC)cc(OC)c1Cl)C2 [Compound I-95] |  | EC50 (pFGFR4 in Huh7 cells; [3]): 101 to 500 nM |
| C=CC(=O)N[C@H]1CCCC[C@H]1Nc1ncc2c(n1)N(Cc1cscn1)C(=O)N(c1c(Cl)c(OC)cc(OC)c1Cl)C2 [Compound I-114] |  | EC50 (pFGFR4 in Huh7 cells; [3]): 101 to 500 nM |
| C=CC(=O)Nc1cc(N2CCN(C(=O)CCCC(=O)NCCCOCCOCCOCCCNC(=O)CCCC[C@@H]3SC[C@@H]4NC(=O)N[C@@H]43)CC2)ccc1Nc1ncc2c(n1)N(C)C(=O)N(c1c(Cl)c(OC)cc(OC)c1Cl)C2 [Compound I-127] |  | EC50 (pFGFR4 in Huh7 cells; [3]): 101 to 500 nM |
| C=CC(=O)Nc1ccccc1Nc1ncc2c(n1)N(Cc1ccnc(N)c1)C(=O)N(c1c(Cl)c(OC)cc(OC)c1Cl)C2 [Compound I-135] |  | EC50 [1, 4]: < 100 nM |
| C=CC(=O)Nc1ccccc1Nc1ncc2c(n1)N(Cc1ccn(C)n1)C(=O)N(c1c(Cl)c(OC)cc(OC)c1Cl)C2 [Compound I-136] |  | EC50 [1, 4]: < 100 nM |
| C=CC(=O)Nc1cc(-c2cnn(C)c2)ccc1Nc1ncc2c(n1)N(C)C(=O)N(c1c(Cl)c(OC)cc(OC)c1Cl)C2 [Compound I-141] |  | EC50 [1, 4]: < 100 nM |
| C=C(C)C(=O)Nc1ccccc1Nc1ncc2c(n1)N(C)C(=O)N(c1c(Cl)c(OC)cc(OC)c1Cl)C2 [Compound I-142] |  | EC50 [1, 4]: 101 to 500 nM |
| C=CC(=O)Nc1ccccc1Nc1ncc2c(n1)N(Cc1ccc(F)c(N)c1)C(=O)N(c1c(Cl)c(OC)cc(OC)c1Cl)C2 [Compound I-144] |  | EC50 [1, 4]: < 100 nM |
| C=CC(=O)Nc1cc(-c2nnn(C)n2)ccc1Nc1ncc2c(n1)N(C)C(=O)N(c1c(Cl)c(OC)cc(OC)c1Cl)C2 [Compound I-145] |  | EC50 [1, 4]: < 100 nM |
| C=CC(=O)N[C@H]1CCCC[C@H]1Nc1ncc2c(n1)N(Cc1ccn(C)n1)C(=O)N(c1c(Cl)c(OC)cc(OC)c1Cl)C2 [Compound I-147] |  | EC50 [1, 4]: < 100 nM |

| SMILES | EC50 (pFGFR4 in Huh7 cells; [2]) [nM] | other results |
| --- | --- | --- |
| C=CC(=O)N[C@H]1CCCC[C@H]1Nc1ncc2c(n1)N(Cc1cnn(C)c1)C(=O)N(c1c(Cl)c(OC)cc(OC)c1Cl)C2 [Compound I-148] |  | EC50 [1, 4]: < 100 nM |
| C=CC(=O)Nc1cc(C(=O)NC2CCN(C)CC2)ccc1Nc1ncc2c(n1)N(C)C(=O)N(c1c(Cl)c(OC)cc(OC)c1Cl)C2 [Compound I-150] |  | EC50 [1, 4]: < 100 nM |
| C=CC(=O)N[C@H]1CCCC[C@H]1Nc1ncc2c(n1)N(Cc1cn[nH]c1)C(=O)N(c1c(Cl)c(OC)cc(OC)c1Cl)C2 [Compound I-152] |  | EC50 [1, 4]: < 100 nM |
| C=CC(=O)NCc1ccccc1Nc1ncc2c(n1)N(Cc1cccc(NC(=O)CC)c1)C(=O)N(c1c(Cl)c(OC)cc(OC)c1Cl)C2 [Compound I-179] |  | EC50 [1, 6]: < 100 nM |
| C=CC(=O)Nc1ccccc1CNc1ncc2c(n1)N(Cc1cccc(NC(=O)CC)c1)C(=O)N(c1c(Cl)c(OC)cc(OC)c1Cl)C2 [Compound I-180] |  | EC50 ([1]; MDA-MB-453 cells, Method C (ELISA) for signaling EC50 determination): < 100 nM |
| C=CC(=O)NCc1ccccc1Nc1ncc2c(n1)N(C)C(=O)N(c1c(Cl)c(OC)cc(OC)c1Cl)C2 [Compound I-181] |  | EC50 [1, 4]: < 100 nM |
| C=CC(=O)NC1COCC1Nc1ncc2c(n1)N(C)C(=O)N(c1c(F)c(OC)cc(OC)c1F)C2 (stereo not shown) [Compound I-198] | < 100 |  |
| C=CC(=O)NC1CS(=O)(=O)CC1Nc1ncc2c(n1)N(C)C(=O)N(c1c(Cl)c(OC)cc(OC)c1Cl)C2 (stereo not shown) [Compound I-200] | 101 to 500 |  |
| C=CC(=O)NC1CN(c2ccncn2)CC1Nc1ncc2c(n1)N(C)C(=O)N(c1c(Cl)c(OC)cc(OC)c1Cl)C2 (stereo not shown) [Compound I-201] | 101 to 500 |  |
| C=CC(=O)NC1CN(c2ccn(C)n2)CC1Nc1ncc2c(n1)N(C)C(=O)N(c1c(Cl)c(OC)cc(OC)c1Cl)C2 (stereo not shown) [Compound I-204] | < 100 |  |
| C=CC(=O)NC1COCC1Nc1ncc2c(n1)N(C)C(=O)N(c1c(Cl)c(OCC)cc(OCC)c1Cl)C2 (stereo not shown) [Compound I-205] | 101 to 500 |  |
| C=CC(=O)NC1COCC1Nc1ncc2c(n1)N(C)C(=O)N(c1c(F)c(OC)cc(OC)c1Cl)C2 (stereo not shown) [Compound I-206] | < 100 |  |
| C=CC(=O)NC1COCC1Nc1ncc2c(n1)N(C)C(=O)N(c1cc(OC)c(OC)c(OC)c1)C2 (stereo not shown) [Compound I-207] | > 1000 |  |
| C=CC(=O)NC1COCC1Nc1ncc2c(n1)N(C)C(=O)N(c1c(Cl)c(OC)c(OC)c(OC)c1Cl)C2 (stereo not shown) [Compound I-208] | > 1000 |  |
| C=CC(=O)NC1COCC1Nc1ncc2c(n1)N(C)C(=O)N(c1ccc(OC)cc1)C2 (stereo not shown) [Compound I-209] | > 1000 |  |
| C=CC(=O)NC1COCC1Nc1ncc2c(n1)N(Cc1cscn1)C(=O)N(c1c(Cl)c(OC)cc(OC)c1Cl)C2 (stereo not shown) [Compound I-210] | < 100 |  |
| C=CC(=O)NC1COCC1Nc1ncc2c(n1)N(CC1CC1)C(=O)N(c1c(Cl)c(OC)cc(OC)c1Cl)C2 (stereo not shown) [Compound I-212] | < 100 |  |
| C=CC(=O)NC1COCC1Nc1ncc2c(n1)N(Cc1cnn(C)c1)C(=O)N(c1c(Cl)c(OC)cc(OC)c1Cl)C2 (stereo not shown) [Compound I-213] | < 100 |  |
| C=CC(=O)NC1COCC1Nc1ncc2c(n1)N(Cc1cn[nH]c1)C(=O)N(c1c(Cl)c(OC)cc(OC)c1Cl)C2 (stereo not shown) [Compound I-214] | 101 to 500 |  |

| SMILES | EC50 (pFGFR4 in Huh7 cells; [2]) [nM] | other results |
| --- | --- | --- |
| C=CC(=O)NC1COCC1Nc1ncc2c(n1)N(Cc1ccn(C)n1)C(=O)N(c1c(Cl)c(OC)cc(OC)c1Cl)C2 (stereo not shown) [Compound I-215] | < 100 |  |
| C=CC(=O)NC1COCC1Nc1ncc2c(n1)N(Cc1cc[nH]n1)C(=O)N(c1c(Cl)c(OC)cc(OC)c1Cl)C2 (stereo not shown) [Compound I-216] | 101 to 500 |  |
| C=CC(=O)NC1COCC1Nc1ncc2c(n1)N(CC)C(=O)N(c1c(Cl)c(OC)cc(OC)c1Cl)C2 (stereo not shown) [Compound I-217] | < 100 |  |
| C=CC(=O)N(C)C1COCC1Nc1ncc2c(n1)N(C)C(=O)N(c1c(Cl)c(OC)cc(OC)c1Cl)C2 (stereo not shown) [Compound I-218] | > 1000 |  |
| C=CC(=O)N[C@H]1CCCC[C@H]1Nc1ncc2c(n1)N(C)C(=O)N(c1c(Cl)c(OCC)cc(OCC)c1Cl)C2 [Compound I-219] | 501 to 999 |  |
| C=CC(=O)N[C@H]1CCCC[C@H]1Nc1ncc2c(n1)N(C)C(=O)N(c1cc(OC)c(OC)c(OC)c1)C2 [Compound I-220] | > 1000 |  |
| C=CC(=O)N[C@H]1CCCC[C@H]1Nc1ncc2c(n1)N(C)C(=O)N(c1c(Cl)c(OC)c(OC)c(OC)c1Cl)C2 [Compound I-221] | > 1000 |  |
| C=CC(=O)N[C@H]1CCCC[C@H]1Nc1ncc2cc(-c3c(Cl)c(OC)cc(OC)c3Cl)c(=O)n(C)c2n1 [Compound I-223] |  | EC50 (pFGFR4 in Huh7 cells; [3]): < 100 nM |
| C=CC(=O)N[C@H]1CCCC[C@H]1Nc1ncc2c(n1)N(C)C(=O)N(c1c(F)c(OC)cc(OC)c1Br)C2 [Compound I-228] | 101 to 500 |  |
| C=CC(=O)Nc1ccc(Nc2ncc3c(n2)N(Cc2cccc(NC(=O)CC)c2)C(=O)N(c2c(Cl)c(OC)cc(OC)c2Cl)C3)cc1 [Compound I-233] |  | EC50 [1, 6]: < 100 nM |
| CCC(=O)Nc1ccccc1Nc1ncc2c(n1)N(C)C(=O)N(c1c(Cl)c(OC)cc(OC)c1Cl)C2 [Compound I-235] |  | EC50 [1, 5]: 501 to 999 nM |
| CCC(=O)Nc1ccccc1Nc1ncc2c(n1)N(Cc1ccccc1)C(=O)N(c1c(Cl)c(OC)cc(OC)c1Cl)C2 [Compound I-236] |  | EC50 [1, 5]: 101 to 500 nM |
| COc1cc(OC)cc(N2Cc3cnc(Nc4ccccc4)nc3N(C)C2=O)c1 [Compound I-237] |  | EC50 [1, 5]: 101 to 500 nM |
| C=CC(=O)Nc1cc(OC)ccc1Nc1ncc2cc(-c3c(Cl)c(OC)cc(OC)c3Cl)c(=O)n(C)c2n1 [Compound I-242] | < 100 |  |
| C=CC(=O)Nc1cc(C)ccc1Nc1ncc2cc(-c3c(Cl)c(OC)cc(OC)c3Cl)c(=O)n(C)c2n1 [Compound I-243] | < 100 |  |
| C=CC(=O)Nc1ccccc1Nc1ncc2cc(-c3c(Cl)c(OC)cc(OC)c3Cl)c(=O)n(C)c2n1 [Compound I-244] | < 100 |  |
| C=CC(=O)Nc1cc(F)ccc1Nc1ncc2cc(-c3c(Cl)c(OC)cc(OC)c3Cl)c(=O)n(C)c2n1 [Compound I-245] | < 100 |  |
| C=CC(=O)NC1COCC1Nc1ncc2c(n1)N(C)C(=O)N(c1cc(C(=O)Nc3cccc(C(C)(C)C#N)c3)ccc1Cl)C2 (stereo not shown) [Compound I-246] | 101 to 500 |  |
| C=CC(=O)NC1COCC1Nc1ncc2c(n1)N(C)C(=O)N(c1cc(C(=O)Nc3cccc(C(C)(C)C)c3)ccc1Cl)C2 (stereo not shown) [Compound I-247] | < 100 |  |

Reference: patent US10774052B2, “Heteroaryl compounds and uses thereof” (Celgene CAR LLC, priority 2013, dated 2020)
